Results on 4 compounds are retold here after patent US8658167B2, “Methods and compositions for treatment and diagnosis of fibrosis, tumor invasion, angiogenesis, and metastasis” (Gilead Biologics, Inc., priority 2007, dated 2014).

Molecules are shown by their SMILES.

One experiment relates to LOXL2. In words: Mode of inhibition of LOXL2. It is filed as biochemical. To be noted: 1,5-diaminopentane substrate; FIG. 21. The procedure:
Mode of inhibition of antibodies against LOXL2 was conducted using the model described below. In these experiments, the dependence of the steady state rate on the concentration of 1,5-diaminopentane was monitored under increasing concentrations of antibody. The purpose was to assess whether the Km for substrate, kcat or both change in the presence of antibody. Parameter α describes the effect of the compound on substrate affinity. An α value equal to one describes a situation in which the compound binds equally well the free enzyme and the enzyme-substrate complex (non-competitive inhibition like). Values less than one describe an interaction in which the compound binds the enzyme-substrate complex (uncompetitive inhibition like). Values greater than one correspond to the compound binding the free enzyme better than the enzyme-substrate complex (competitive inhibition like). The β value describes the effect of the modulator on the rate of the enzyme. Inhibitors have values less than one (for a complete inhibitor β=0) and activators have values greater than one. […] The steady state rates were determined from the slope of the fluorescence response as a function of time as described above. Data was plotted as the dependence of steady state rate on the concentration of substrate (1,5-diaminopentane) at several fixed concentrations of antibody and analyzed with GraFit.

Another experiment has as its target T1, LOX (Mus musculus, UniProt P28301).
T1 construct: Specific LOX activity was evident on the cell surface of NIH3T3 cells; endogenous in cells; host or cells: NIH 3T3
T1 sequence (P28301 163-411): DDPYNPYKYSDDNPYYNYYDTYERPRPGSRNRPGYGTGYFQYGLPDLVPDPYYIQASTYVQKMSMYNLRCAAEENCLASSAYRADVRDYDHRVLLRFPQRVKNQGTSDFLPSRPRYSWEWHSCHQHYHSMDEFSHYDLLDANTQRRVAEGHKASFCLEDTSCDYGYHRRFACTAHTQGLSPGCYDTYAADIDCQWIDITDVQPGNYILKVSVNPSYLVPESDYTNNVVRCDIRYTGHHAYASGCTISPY
In words: Surface-associated LOX activity in 3T3 cells (HRP-coupled Amplex Ultra Red assay, 1,5-diaminopentane substrate). As to conditions: BAPN 1 mM; LOX mAb 15 ug/ml; LOX siRNA 100 nM, day seven after transfection; FIG. 15. It is filed as cell-based. As for the experimental part: Specific LOX activity was evident on the cell surface of NIH3T3 cells. Activity was quantitated with a horseradish peroxidase-coupled fluorescent assay method based on the oxidation of Amplex Ultra Red with a 1,5-diaminopentane substrate. LOX activity was inhibited with the irreversible small molecule inhibitor, BAPN, with a monoclonal antibody raised against a LOX peptide, and with a siRNA oligonucleotide specifically targeting LOX mRNA. (FIG. 15)
NIH 3T3 cells were transfected with 100 nM of LOX siRNA (Invitrogen Stealth, HSS106117, […] (SEQ ID NO:20)) or non-targeting control. 25 ul of Dharmafect® #3 (Dharmacon) was mixed with 1 ml of OPTIMEM I® (Invitrogen) and sat for 5 minutes at room temperature. 50 ul of 20 uM siRNA was then added, mixed and the transfection mix was incubated at room temperature for 15 minutes. 1 ml of transfection mix was then added to a trypsinized cell suspension in growth media containing 1×10^6 cells and the resulting mixture was plated into a 10 cm^2 culture dish. Six days after transfection, cells were trypsinized and re-plated into 96 well plate format at 50,000 cells/well. […] The plate was read in a Molecular Devices M5 plate reader at 37° C. The plate reader was configured to read fluorescence (ex=544 nm, em=590 nm) in kinetics mode for approximately 2.5 hours.

The next experiment concerns MDA-MB-231. In words: Drug sensitivity assays with LOX/LOXL inhibition (CellTiter Glo viability). It is filed as cell-based, human. As for the experimental part: After 5 days of continuous exposure, cultures were rinsed and live cell number was determined using CellTiter Glo™ (Promega, San Luis Obispo, Calif.) according to manufacturer instructions. […] (FIGS. 36, 37, 38)
For siRNA drug sensitivity studies, cells were transiently transfected with […] LOX, LOXL2, or non-targeting Stealth Select™ RNAi validated oligos using the Dharmafect transfection reagent according to manufacturer instructions (Thermo Scientific, Lafayette, Colo.) 24 hrs prior to drug exposure. Knock down levels following drug exposure were verified with quantitative PCR. Stable shRNA cell lines were generated using the MISSION© shRNA Lentiviral System (Sigma-Aldrich, St. Louis, Mo.).

With `N#CCCN` [BAPN, β-aminoproprionitrile], the “mode of inhibition of LOXL2” value in the experiment on LOXL2 is “competitive inhibitor”. In addition, the “surface-associated LOX activity in 3T3 cells” value on LOX is “inhibited”.
As to `COc1cccc2c1C(=O)c1c(O)c3c(c(O)c1C2=O)C[C@@](O)(C(=O)CO)C[C@@H]3O[C@H]1C[C@H](N)[C@H](O)[C@H](C)O1` [doxorubicin], the “decrease of calculated IC50” value with MDA-MB-231 (MDA-MB-231 siLOX, siLOXL2 and siLOX/siLOXL2 double knockdown cell lines vs parent cell line (control), FIG. 39A) is 27%-55%.
With `C#Cc1cccc(Nc2ncnc3cc(OCCOC)c(OCCOC)cc23)c1` [erlotinib, Erlotinib], the “reduction in cell viability (calculated IC50 compared to control line)” value in the experiment on MDA-MB-231 (shLOXL2 knockdown cell line (shLOXL2.195) vs sh control, parental MDA-MB-231, FIG. 36) is on record as “approximately 7 fold”.
In the experiment with MDA-MB-231 (MDA-MB-231 shLOX knockdown cell line vs GFP control, FIG. 37), `CN(Cc1cnc2nc(N)nc(N)c2n1)c1ccc(C(=O)N[C@@H](CCC(=O)O)C(=O)O)cc1` [methotrexate (MTX), methotrexate] registered a reduction in viability of roughly 2 fold.
